Measurements reported in patent US10688197B2, “Non-alcoholic fatty liver regulator 14-3-3 protein” (Korea University Research and Business Foundation, priority 2015, dated 2020).

Legend:
HepG2 cells [1] = assay: mRNA expression by PCR in HepG2 cells; assay type: cell-based, human; settings: for mRNA expression of SREBP-1c and FAT/CD36: HepG2, overexpression, 200 μM oleic acid 72 hours, FIG. 7A
Procedure: For mRNA extraction, the corresponding cells were lysed with 1 ml/well of TRIzol (Invitrogen), 200 μl of chloroform was added thereto and mixed well, the resultant cells were maintained at room temperature for 5 minutes and then centrifuged at 12,000×g and 4° C. for 15 minutes, the obtained supernatant was mixed with 500 μl of isopropanol and then put on ice for 10 minutes, the resulting supernatant was centrifuged at 12,000×g and 4° C. for 15 minutes to remove a supernatant, and then pellets were dissolved with tertiary distilled water treated with diethyl pyrocarbonate (DEPC). 2 μg of mRNA was synthesized into cDNA using a Superscript First Strand cDNA Synthesis Kit (Bioneer, Daejeon, South Korea) and the synthesized cDNA as a template was amplified through polymerase chain reaction (PCR) using primers specific to PPARγ2, 14-3-3β, 14-3-3γ, SREBP-1c, SCD-1, ACC, FABP, FAT/CD36, and β-actin of humans, and was amplified through real-time PCR using primers specific to PPARγ2, 14-3-3β, 14-3-3γ, SREBP-1c, FAT/CD36, and GAPDH of mice. β-actin and GAPDH were used as controls to see whether mRNAs of the respective cells were compared in the same amount.
HepG2 cells were seeded in a 6-well plate at a density of 4×10^5 cells per each well, and then transfected with GFP-14-3-3β DNA (4 μg) or GFP-14-3-3γ DNA (4 μg) using an E-fection plus reagent (Lugen). A ratio of DNA to the E-fection plus reagent was 1:2, and this method was performed according to a manufacturer's manual. After transfection, […], and for mRNA extraction, the corresponding cells were lysed with 1 ml/well of TRIzol (Invitrogen), 200 μl of chloroform was added thereto and mixed well, the resultant cells were maintained at room temperature for 5 minutes and then centrifuged at 12,000×g and 4° C. for 15 minutes, the obtained supernatant was mixed with 500 μl of isopropanol and then put on ice for 10 minutes, and the resulting supernatant was centrifuged at 12,000×g and 4° C. for 15 minutes to remove a supernatant, and then pellets were dissolved with tertiary distilled water treated with diethyl pyrocarbonate (DEPC). 2 μg of mRNA was synthesized into cDNA using a Superscript First Strand cDNA Synthesis Kit (Bioneer, Daejeon, South Korea) and the synthesized cDNA as a template was amplified through polymerase chain reaction (PCR) using primers specific to PPARγ2 (SEQ ID NOS: 1 and 2), 14-3-3β (SEQ ID NOS: 3 and 4), 14-3-3γ (SEQ ID NOS: 5 and 6), SREBP-1c, FAT/CD36, and β-actin of humans, and was amplified through real-time PCR using primers specific to SREBP-1c, FAT/CD36, and GAPDH of mice. β-actin and GAPDH were used as controls to see whether mRNAs of the respective cells were compared in the same amount.

HepG2 cells [2] = assay: Oil Red-O lipid accumulation in HepG2 cells; assay type: cell-based, human; settings: for lipid accumulation by oleic acid: HepG2, overexpression, 200 μM oleic acid 72 hours, FIG. 9B
Procedure: (§1) HepG2 cells and primary mouse hepatocytes were separately seeded in a 6-well plate at a density of 4×10^5 cells per each well, and then transfected with GFP-14-3-3β DNA (1 μg) or GFP-14-3-3γ DNA (1 μg) and si-14-3-3β (10 μM, Santa Cruz) or si-14-3-3γ (10 μM, Santa Cruz) using an E-fection plus reagent (Lugen). A ratio of DNA to the E-fection plus reagent was 1:2, and this method was performed according to a manufacturer's manual. […] The stained cells were bleached with 1 ml of isopropanol and analyzed at a wavelength of 550 nm using a DU530 spectrophotometer (Beckman Instruments, Palo Alto, Calif.).

[3] = test system: primary mouse hepatocytes; assay: Oil Red-O lipid accumulation in primary mouse hepatocytes; assay type: cell-based; settings: for lipid accumulation by oleic acid: overexpression, 200 μM oleic acid 72 hours, FIG. 9B
Procedure: as §1

HepG2 cells [4] = assay: Triglyceride colorimetric assay in HepG2 cells; assay type: cell-based, human; settings: HepG2, overexpression, 200 μM oleic acid 72 hours, FIG. 10A
Procedure: HepG2 cells and primary mouse hepatocytes were separately seeded in a 6-well plate at a density of 4×10^5 cells per each well, and then transfected with GFP-14-3-3β DNA (1 μg) or GFP-14-3-3γ DNA (1 μg) and si-14-3-3β (10 μM, Santa Cruz) or si-14-3-3γ (10 μM, Santa Cruz) using an E-fection plus reagent (Lugen). A ratio of DNA to the E-fection plus reagent was 1:2, and this method was performed according to a manufacturer's manual. After transfection, the cells were treated with 200 μM of oleic acid (OA) for 72 hours, and the amount of triglycerides was measured using a triglyceride colorimetric assay kit (Cayman Chemical). The corresponding cells were washed with ice-cold PBS and then scraped using a standard diluent assay reagent, the scrapping process was repeated using a sonicator 20 times to lyse the cells, and the lysed cells were reacted with an enzyme buffer solution for 15 minutes, followed by measurement using an ELISA reader (Bio-Rad Laboratories, Inc) at a wavelength of 550 nm.

Compound | mRNA expression of SREBP-1c and FAT/CD36 (HepG2 cells [1]) | lipid accumulation by oleic acid (HepG2 cells [2]) | lipid accumulation by oleic acid [3] | triglyceride accumulation (HepG2 cells [4]) | mRNA expression of PPARγ2 (HepG2 cells [1]; HepG2, oleic acid concentration-dependent, FIG. 6A) | mRNA expression of lipid metabolism-associated genes (PPARγ2 target genes) (HepG2 cells [1]; HepG2, oleic acid concentration-dependent, FIG. 6C) | mRNA expression amounts of 14-3-3β and 14-3-3γ (HepG2 cells [1]; HepG2, oleic acid treatment, FIG. 6A) | lipid accumulation (HepG2 cells [2]; HepG2, concentration-dependent treatment of oleic acid, FIG. 9A) | lipid accumulation ([3]; concentration-dependent treatment of oleic acid, FIG. 9A)
14-3-3β: 14-3-3 isoform protein overexpressed by DNA transfection; increases the transcriptional activity of PPARγ2 by binding to PPARγ2 | further increased | increased | increased | further increased | – | – | – | – | –
14-3-3γ: 14-3-3 isoform protein overexpressed by DNA transfection; decreases the transcriptional activity of PPARγ2; proposed active ingredient | reduced | reduced | reduced | reduced | – | – | – | – | –
CCCCCCCC/C=C\CCCCCCCC(=O)O [oleic acid] | – | – | – | – | increased | increased | no changes | increased | increased
